# System: lactic acid bacteria group (mainly, Lactobacillus spp.)
# Assay: Addition test of γ-PGA and fructo-oligosaccharide to human feces suspension
# Type: cell-based
# Conditions: human feces suspension in PBS medium, anaerobic culture 37° C. 4 days, quantitative PCR, 0.1-1.0% γ-PGA, 0.5% FOS, n=6
# Protocol: The PBS solutions of Examples and Comparative Examples shown in Table 1 were prepared and used as media for feces culture. PBS alone was used as a negative control. As γ-PGA, polyglutamic acid “CALTAKE” manufactured by Ajinomoto Co., Inc. was used, and as FOS, fructo-oligosaccharide manufactured by Wako Pure Chemical Industries, Ltd. was used.
# Thereafter, 10 ml each was dispensed into glass vials and the glass vials were sterilized by autoclave, made anaerobic, and sealed with a butyl rubber stopper. The feces suspension was prepared by collecting about 10 g of feces from 6 healthy individuals (3 men and 3 women) in their 20s to 40s and suspending same in 80 ml of anaerobic PBS. […] DNA was extracted from this pellet using ISOFECAL for BeadsBeat (manufactured by NIPPON GENE CO., LTD.), and quantitative PCR was performed using GeneAce SYBR qPCR Mix α (manufactured by NIPPON GENE CO., LTD.). Quantitative PCR was performed under the conditions of 45 cycles of 95° C. for 30 sec and 60° C. for 60 sec after 95° C. for 10 min. Primers for quantitative PCR used for detection of lactic acid bacteria group (mainly, Lactobacillus spp.) were as follows.
# Using the results obtained by quantitative PCR, the relative amount when PBS alone (negative control) is 1 was calculated, and the results were normalized with z-score. […]
substance,measurement,value
γ-polyglutamic acid [γ-PGA],proliferation of the lactic acid bacteria group,not observed
